Laboratory results from PubChem BioAssay AID2060909 (Molecular Pharmacology Branch, DTP, NCI, 2025).

Test system: 362531-283-R-J2-PDC complex spheroid viability
Test: Anticancer human tumor 362531-283-R-J2-PDC patient-derived colon adenocarcinoma cell line growth inhibition [RAS]
Conditions: for IC50: curve of first compound; for viability, T/C: stronger effect = lower value
Method in brief: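 Agents were tested in combination matrices in half-log decrements from a top concentration at or near clinical Cmax (10 microM if undetermined). Targets were multi-cell spheroids of tumour lines plus HUVEC and MSC stromal cells.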

[1] = second compound 0.000949 µM, first compound 0.0316 µM
[2] = second compound 0.000949 µM, first compound 0.1 µM
[3] = second compound 0.000949 µM, first compound 0.316 µM
[4] = second compound 0.000949 µM, first compound 1 µM
[5] = second compound 0.000949 µM, first compound 3.16 µM
[6] = second compound 0.000949 µM, first compound 10 µM
[7] = second compound 0.003 µM, first compound 0.0316 µM
[8] = second compound 0.003 µM, first compound 0.1 µM
[9] = second compound 0.003 µM, first compound 0.316 µM
[10] = second compound 0.003 µM, first compound 1 µM
[11] = second compound 0.003 µM, first compound 3.16 µM
[12] = second compound 0.003 µM, first compound 10 µM
[13] = second compound 0.00949 µM, first compound 0.0316 µM
[14] = second compound 0.00949 µM, first compound 0.1 µM
[15] = second compound 0.00949 µM, first compound 0.316 µM
[16] = second compound 0.00949 µM, first compound 1 µM
[17] = second compound 0.00949 µM, first compound 3.16 µM
[18] = second compound 0.00949 µM, first compound 10 µM
[19] = second compound 0.03 µM, first compound 0.0316 µM
[20] = second compound 0.03 µM, first compound 0.1 µM
[21] = second compound 0.03 µM, first compound 0.316 µM
[22] = second compound 0.03 µM, first compound 1 µM
[23] = second compound 0.03 µM, first compound 3.16 µM
[24] = second compound 0.03 µM, first compound 10 µM
[25] = second compound 0.0949 µM, first compound 0.0316 µM
[26] = second compound 0.0949 µM, first compound 0.1 µM
[27] = second compound 0.0949 µM, first compound 0.316 µM
[28] = second compound 0.0949 µM, first compound 1 µM
[29] = second compound 0.0949 µM, first compound 3.16 µM
[30] = second compound 0.0949 µM, first compound 10 µM
[31] = second compound 0.3 µM, first compound 0.0316 µM
[32] = second compound 0.3 µM, first compound 0.1 µM
[33] = second compound 0.3 µM, first compound 0.316 µM
[34] = second compound 0.3 µM, first compound 1 µM
[35] = second compound 0.3 µM, first compound 3.16 µM
[36] = second compound 0.3 µM, first compound 10 µM
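Note: spheroids exposed to the agents for 7 days before readout.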
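Throughout, for viability, T/C: luminescence viability as percent of DMSO vehicle control wells.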

`CC1(O)CCCC1n1c(=O)c(C(F)F)cc2cnc(NC3CCN(S(C)(=O)=O)CC3)nc21` (stereo unspecified) + CCn1c(-c2cccnc2C(C)OC)c2c3cc(ccc31)N1CCOC(CC(NC(=O)C(C(C)C)N(C)C(=O)C3(F)CCN(C(=O)C#CC(C)(C)N(C)C)CC3)C(=O)N3CCCC(N3)C(=O)OCC(C)(C)C2)C1 showed an IC50 (second compound 0.000949 µM) greater than 10 µM, an IC50 (second compound 0.003 µM) of 6.21 µM and an IC50 (second compound 0.00949 µM) greater than 10 µM. For the same compound, the IC50 (second compound 0.03 µM) was 4.98 µM, the IC50 (second compound 0.0949 µM) was greater than 10 µM and the IC50 (second compound 0.3 µM) was greater than 10 µM. The viability, T/C [1] was 97.1%, the viability, T/C [2] was 113% and the viability, T/C [3] was 92.2%. For the same compound, the viability, T/C [4] was 70%, the viability, T/C [5] was 55% and the viability, T/C [6] was 73.7%. For the same compound, the viability, T/C [7] was 102%, the viability, T/C [8] was 92.1% and the viability, T/C [9] was 89.8%. For the same compound, the viability, T/C [10] was 72%, the viability, T/C [11] was 57.9% and the viability, T/C [12] was 44.6%. The viability, T/C [13] was 108%, the viability, T/C [14] was 110% and the viability, T/C [15] was 84%. It also gave a viability, T/C [16] of 72.4%, a viability, T/C [17] of 50.5% and a viability, T/C [18] of 53.9%. The viability, T/C [19] was 103%, the viability, T/C [20] was 97% and the viability, T/C [21] was 77.7%. The viability, T/C [22] was 63%, the viability, T/C [23] was 63.9% and the viability, T/C [24] was 38.9%. It also gave a viability, T/C [25] of 102%, a viability, T/C [26] of 91% and a viability, T/C [27] of 94.5%. It also gave a viability, T/C [28] of 58.9%, a viability, T/C [29] of 53.9% and a viability, T/C [30] of 54.7%. It also gave a viability, T/C [31] of 100%, a viability, T/C [32] of 87.4% and a viability, T/C [33] of 87.7%. It also gave a viability, T/C [34] of 66%, a viability, T/C [35] of 56.9% and a viability, T/C [36] of 51.4%.

Compound `CCC(CC)c1cc(NC2CCC(N)C2)n2nccc2n1` (stereo unspecified) + CCn1c(-c2cccnc2C(C)OC)c2c3cc(ccc31)N1CCOC(CC(NC(=O)C(C(C)C)N(C)C(=O)C3(F)CCN(C(=O)C#CC(C)(C)N(C)C)CC3)C(=O)N3CCCC(N3)C(=O)OCC(C)(C)C2)C1 has an IC50 (second compound 0.000949 µM) of 4.52 µM, an IC50 (second compound 0.003 µM) of 4.5 µM and an IC50 (second compound 0.00949 µM) of 4.34 µM. The IC50 (second compound 0.03 µM) was 4.72 µM, the IC50 (second compound 0.0949 µM) was 4.68 µM and the IC50 (second compound 0.3 µM) was 4.95 µM. The viability, T/C [1] was 99.5%, the viability, T/C [2] was 111% and the viability, T/C [3] was 98.1%. The viability, T/C [4] was 98.4%, the viability, T/C [5] was 70.5% and the viability, T/C [6] was 3.98%. For the same compound, the viability, T/C [7] was 105%, the viability, T/C [8] was 101% and the viability, T/C [9] was 99.9%. It also gave a viability, T/C [10] of 101%, a viability, T/C [11] of 70.8% and a viability, T/C [12] of 3.44%. For the same compound, the viability, T/C [13] was 103%, the viability, T/C [14] was 116% and the viability, T/C [15] was 97.9%. The viability, T/C [16] was 96.5%, the viability, T/C [17] was 67.2% and the viability, T/C [18] was 3.91%. It also gave a viability, T/C [19] of 102%, a viability, T/C [20] of 104% and a viability, T/C [21] of 95.8%. It also gave a viability, T/C [22] of 89%, a viability, T/C [23] of 76.8% and a viability, T/C [24] of 4.25%. The viability, T/C [25] was 94.3%, the viability, T/C [26] was 102% and the viability, T/C [27] was 93.7%. The viability, T/C [28] was 94.8%, the viability, T/C [29] was 73.7% and the viability, T/C [30] was 4.42%. For the same compound, the viability, T/C [31] was 99.2%, the viability, T/C [32] was 105% and the viability, T/C [33] was 100%. For the same compound, the viability, T/C [34] was 91.8%, the viability, T/C [35] was 80.8% and the viability, T/C [36] was 4.23%.

`CCN1CCN(Cc2ccc(Nc3ncc(F)c(-c4cc(F)c5nc(C)n(C(C)C)c5c4)n3)nc2)CC1` + CCn1c(-c2cccnc2C(C)OC)c2c3cc(ccc31)N1CCOC(CC(NC(=O)C(C(C)C)N(C)C(=O)C3(F)CCN(C(=O)C#CC(C)(C)N(C)C)CC3)C(=O)N3CCCC(N3)C(=O)OCC(C)(C)C2)C1 showed an IC50 (second compound 0.000949 µM) greater than 1 µM, an IC50 (second compound 0.003 µM) of 0.719 µM and an IC50 (second compound 0.00949 µM) of 0.876 µM. It also gave an IC50 (second compound 0.03 µM) greater than 1 µM, an IC50 (second compound 0.0949 µM) greater than 1 µM and an IC50 (second compound 0.3 µM) of 0.437 µM. For the same compound, the viability, T/C (second compound 0.000949 µM, first compound 0.00316 µM) was 96%, the viability, T/C (second compound 0.000949 µM, first compound 0.01 µM) was 92% and the viability, T/C [1] was 67.3%. It also gave a viability, T/C [2] of 83.8%, a viability, T/C [3] of 66.4% and a viability, T/C [4] of 46.7%. The viability, T/C (second compound 0.003 µM, first compound 0.00316 µM) was 108%, the viability, T/C (second compound 0.003 µM, first compound 0.01 µM) was 98.5% and the viability, T/C [7] was 65.6%. It also gave a viability, T/C [8] of 73%, a viability, T/C [9] of 66.6% and a viability, T/C [10] of 40.9%. The viability, T/C (second compound 0.00949 µM, first compound 0.00316 µM) was 105%, the viability, T/C (second compound 0.00949 µM, first compound 0.01 µM) was 105% and the viability, T/C [13] was 55.3%. For the same compound, the viability, T/C [14] was 74.4%, the viability, T/C [15] was 59.8% and the viability, T/C [16] was 45.7%. It also gave a viability, T/C (second compound 0.03 µM, first compound 0.00316 µM) of 112%, a viability, T/C (second compound 0.03 µM, first compound 0.01 µM) of 94.2% and a viability, T/C [19] of 57.5%. For the same compound, the viability, T/C [20] was 65.8%, the viability, T/C [21] was 66.1% and the viability, T/C [22] was 43.4%. It also gave a viability, T/C (second compound 0.0949 µM, first compound 0.00316 µM) of 103%, a viability, T/C (second compound 0.0949 µM, first compound 0.01 µM) of 88.3% and a viability, T/C [25] of 53.4%. For the same compound, the viability, T/C [26] was 69%, the viability, T/C [27] was 65% and the viability, T/C [28] was 46.6%. The viability, T/C (second compound 0.3 µM, first compound 0.00316 µM) was 100%, the viability, T/C (second compound 0.3 µM, first compound 0.01 µM) was 82.5% and the viability, T/C [31] was 56.4%. It also gave a viability, T/C [32] of 64.9%, a viability, T/C [33] of 57.2% and a viability, T/C [34] of 40.9%.
